Data: publication PMC10339456, “Exploring the 5-Substituted 2-Aminobenzothiazole-Based DNA Gyrase B Inhibitors Active against ESKAPE Pathogens” (ACS Omega, 2023)
Read-outs that look alike come from different tables or passages of the source.

Key:
[1] = target: T1, E. coli Topo IV (Escherichia coli, UniProt P20083); experiment: Topo IV relaxation assay (Inspiralis kit); type: biochemical
T1 construct: purchased Inspiralis Limited, Norwich, UK
Procedure: (§1) Compounds B, C, D, and E were evaluated against DNA gyrase from E. coli supercoiling and against Topo IV in relaxation assay. The results are presented in Table 1 and Figure S5 as concentrations of compounds that inhibit the enzyme activity by 50% (IC50 values). […] Compounds B, C, D, and E were tested for antibacterial activity against Gram-positive and Gram-negative bacteria, including ESKAPE pathogens.
(§2) Commercially available assay kits (Inspiralis Limited, Norwich, UK) were used for the determination of IC50 values for test compounds for inhibition of DNA gyrase supercoiling and Topo IV and TopoIIα relaxation. Assays were performed according to previously reported procedures.[25] For details on enzyme assays, see the Supporting Information.

[2] = test system: Gram-negative strains; experiment: MIC, summary in text over Gram-negative strains; type: cell-based; settings: for MIC: read-out: MIC against Gram-negative strains (no activity); for MIC range against Gram-negative strains: E. coli, A. baumannii, P. aeruginosa, and K. pneumoniae
Procedure: (§3) To evaluate selectivity against a related human target, compounds D and E were tested for their inhibitory activity on human topoisomerase IIα.
(§4) Antimicrobial assays (MICs) were performed by a standard serial broth microdilution method. For details on antimicrobial assays, see the Supporting Information.

[3] = target: T2, E. coli gyrase (Escherichia coli, UniProt P0AES6); experiment: DNA gyrase supercoiling assay (Inspiralis kit); type: biochemical; settings: mean ± SD of three independent experiments
T2 construct: purchased Inspiralis Limited, Norwich, UK
Procedure: as §1, §2

[4] = test system: Enterobacter cloacae ATCC13047; experiment: MIC, broth microdilution (CLSI); type: cell-based
Procedure: as §4

[5] = test system: A. baumannii ATCC17978; experiment: MIC, broth microdilution (CLSI); type: cell-based; settings: Acinetobacter baumannii
Procedure: as §4

[6] = test system: P. aeruginosa ATCC27853; experiment: MIC, broth microdilution (CLSI); type: cell-based; settings: Pseudomonas aeruginosa
Procedure: as §4

[7] = test system: K. pneumoniae ATCC10031; experiment: MIC, broth microdilution (CLSI); type: cell-based; settings: Klebsiella pneumoniae
Procedure: as §4

[8] = test system: S. aureus (MRSA) ATCC43300; experiment: MIC, broth microdilution (CLSI); type: cell-based; settings: Staphylococcus aureus
Procedure: as §4

[9] = test system: S. aureus ATCC29213; experiment: MIC, broth microdilution (CLSI); type: cell-based; settings: Staphylococcus aureus
Procedure: as §4

[10] = test system: E. coli ATCC25922; experiment: MIC, broth microdilution (CLSI); type: cell-based; settings: Escherichia coli
Procedure: as §4

[11] = target: T3, human topoisomerase IIα (Homo sapiens, UniProt P11388); experiment: Human topoisomerase IIα relaxation assay (selectivity); type: biochemical; settings: read-out: enzyme residual activity human topoisomerase IIα
T3 construct: purchased Inspiralis Limited, Norwich, UK
T3 sequence (P11388 whole entry): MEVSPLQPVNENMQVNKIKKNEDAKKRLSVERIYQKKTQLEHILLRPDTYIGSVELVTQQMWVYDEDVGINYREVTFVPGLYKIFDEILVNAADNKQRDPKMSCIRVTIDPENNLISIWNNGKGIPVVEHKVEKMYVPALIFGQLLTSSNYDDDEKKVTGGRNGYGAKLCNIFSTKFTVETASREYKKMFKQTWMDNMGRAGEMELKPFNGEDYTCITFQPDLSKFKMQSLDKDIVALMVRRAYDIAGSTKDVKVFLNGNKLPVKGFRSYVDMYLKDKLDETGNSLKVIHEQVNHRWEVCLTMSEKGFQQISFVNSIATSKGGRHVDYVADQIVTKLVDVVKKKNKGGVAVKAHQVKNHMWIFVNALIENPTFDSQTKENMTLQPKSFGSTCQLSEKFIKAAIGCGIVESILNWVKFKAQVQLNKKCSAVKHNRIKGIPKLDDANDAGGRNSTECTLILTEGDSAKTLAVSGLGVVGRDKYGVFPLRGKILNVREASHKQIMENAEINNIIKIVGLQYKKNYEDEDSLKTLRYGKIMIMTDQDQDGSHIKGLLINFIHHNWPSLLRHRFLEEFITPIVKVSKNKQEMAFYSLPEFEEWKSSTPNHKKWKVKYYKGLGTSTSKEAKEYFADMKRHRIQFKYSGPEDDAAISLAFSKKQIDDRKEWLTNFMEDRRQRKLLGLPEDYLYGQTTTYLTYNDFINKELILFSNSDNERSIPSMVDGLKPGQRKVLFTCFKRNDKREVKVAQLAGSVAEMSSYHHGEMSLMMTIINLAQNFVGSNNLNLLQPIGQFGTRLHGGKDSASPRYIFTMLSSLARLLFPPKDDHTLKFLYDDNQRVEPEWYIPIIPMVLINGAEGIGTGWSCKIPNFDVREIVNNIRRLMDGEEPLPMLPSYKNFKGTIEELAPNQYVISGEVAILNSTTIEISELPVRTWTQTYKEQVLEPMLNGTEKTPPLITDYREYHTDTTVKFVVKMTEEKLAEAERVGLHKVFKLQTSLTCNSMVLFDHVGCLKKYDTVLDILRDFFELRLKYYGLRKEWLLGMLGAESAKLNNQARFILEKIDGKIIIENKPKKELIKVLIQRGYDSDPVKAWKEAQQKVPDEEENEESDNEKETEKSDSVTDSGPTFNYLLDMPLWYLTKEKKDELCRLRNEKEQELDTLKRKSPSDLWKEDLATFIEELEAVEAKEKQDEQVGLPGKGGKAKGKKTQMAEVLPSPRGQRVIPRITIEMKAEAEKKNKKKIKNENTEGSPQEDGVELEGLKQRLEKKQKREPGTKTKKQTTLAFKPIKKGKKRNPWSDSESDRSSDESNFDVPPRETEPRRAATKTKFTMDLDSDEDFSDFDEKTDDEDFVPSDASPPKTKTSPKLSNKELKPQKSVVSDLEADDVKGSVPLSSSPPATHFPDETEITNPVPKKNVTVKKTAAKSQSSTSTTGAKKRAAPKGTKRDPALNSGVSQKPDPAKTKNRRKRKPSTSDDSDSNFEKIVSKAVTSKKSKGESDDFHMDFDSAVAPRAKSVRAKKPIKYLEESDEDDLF
Procedure: as §3, §2

[12] = test system: Gram-positives S. aureus, MRSA, VISA, and E. faecium; experiment: MIC, summary over Gram-positive strains; type: cell-based; settings: most strains
Procedure: as §3, §4

[13] = test system: E. faecium ATCC700221; experiment: MIC, broth microdilution (CLSI); type: cell-based; settings: Enterococcus faecium
Procedure: as §4

[14] = test system: S. aureus (VISA) ATCC700699; experiment: MIC, broth microdilution (CLSI); type: cell-based; settings: Staphylococcus aureus
Procedure: as §4

[15] = test system: S. aureus ATCC29213; parameters: method as in PMID 33524686; settings: cited from earlier work
[16] = target: T1, E. coli Topo IV; parameters: method as in PMID 33524686; settings: relaxation; compound previously prepared and tested; cited from earlier work
[17] = test system: A. baumannii ATCC17978; parameters: method as in PMID 33524686; settings: cited from earlier work
[18] = target: T2, E. coli gyrase; parameters: method as in PMID 33524686; settings: supercoiling; compound previously prepared and tested; cited from earlier work
[19] = test system: Gram-negative strains; parameters: method as in PMID 33524686; settings: cited from earlier work
[20] = test system: E. coli ATCC25922; parameters: method as in PMID 33524686; settings: cited from earlier work
[21] = test system: S. aureus (MRSA) ATCC43300; parameters: method as in PMID 33524686; settings: cited from earlier work
[22] = test system: K. pneumoniae ATCC10031; parameters: method as in PMID 33524686; settings: cited from earlier work
[23] = test system: P. aeruginosa ATCC27853; parameters: method as in PMID 33524686; settings: cited from earlier work
[24] = mean ± SD of three independent experiments, read-out: IC50 E. coli Topo IV

T1 sequence (P20083 whole entry): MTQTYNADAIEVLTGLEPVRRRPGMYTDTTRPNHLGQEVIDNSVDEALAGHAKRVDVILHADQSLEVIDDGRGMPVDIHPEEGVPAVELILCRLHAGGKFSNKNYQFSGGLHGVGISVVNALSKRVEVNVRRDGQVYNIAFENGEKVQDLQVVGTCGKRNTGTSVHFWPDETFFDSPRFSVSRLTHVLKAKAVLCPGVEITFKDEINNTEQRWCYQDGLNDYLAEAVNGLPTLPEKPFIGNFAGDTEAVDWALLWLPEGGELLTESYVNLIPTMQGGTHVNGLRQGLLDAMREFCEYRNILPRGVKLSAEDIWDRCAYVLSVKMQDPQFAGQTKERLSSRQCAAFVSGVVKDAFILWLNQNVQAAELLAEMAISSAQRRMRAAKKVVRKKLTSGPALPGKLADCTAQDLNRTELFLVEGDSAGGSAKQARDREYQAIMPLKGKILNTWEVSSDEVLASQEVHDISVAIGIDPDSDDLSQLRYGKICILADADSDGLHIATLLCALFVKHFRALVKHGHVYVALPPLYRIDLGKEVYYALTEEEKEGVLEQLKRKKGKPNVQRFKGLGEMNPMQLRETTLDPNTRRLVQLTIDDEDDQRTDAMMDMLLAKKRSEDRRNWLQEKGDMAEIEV
T1 sequence (P0AFI2 whole entry, further chain): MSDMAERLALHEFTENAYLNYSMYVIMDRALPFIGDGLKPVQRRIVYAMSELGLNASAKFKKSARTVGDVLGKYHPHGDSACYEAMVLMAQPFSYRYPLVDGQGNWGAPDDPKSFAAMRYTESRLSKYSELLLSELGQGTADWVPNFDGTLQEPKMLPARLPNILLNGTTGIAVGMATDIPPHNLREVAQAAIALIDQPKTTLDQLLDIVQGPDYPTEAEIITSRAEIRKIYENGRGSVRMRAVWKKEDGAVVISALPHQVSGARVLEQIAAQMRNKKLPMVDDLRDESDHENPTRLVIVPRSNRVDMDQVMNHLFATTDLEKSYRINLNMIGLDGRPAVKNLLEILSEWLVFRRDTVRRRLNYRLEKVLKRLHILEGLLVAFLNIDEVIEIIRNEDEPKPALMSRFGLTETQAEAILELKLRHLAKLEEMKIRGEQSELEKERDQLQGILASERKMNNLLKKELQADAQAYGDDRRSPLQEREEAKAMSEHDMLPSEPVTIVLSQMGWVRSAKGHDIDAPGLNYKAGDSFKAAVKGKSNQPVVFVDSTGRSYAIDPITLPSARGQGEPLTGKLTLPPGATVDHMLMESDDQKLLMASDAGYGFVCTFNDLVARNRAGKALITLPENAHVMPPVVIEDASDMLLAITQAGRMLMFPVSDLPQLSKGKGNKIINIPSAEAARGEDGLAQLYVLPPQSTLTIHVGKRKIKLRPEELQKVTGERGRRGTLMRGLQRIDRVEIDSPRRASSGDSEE

SMILES	IC50 [1, 24]	MIC [2]	IC50 [3]	MIC ([4]; first value of cell)	MIC ([4]; second value of cell)	MIC ([5]; first value of cell)	MIC ([5]; second value of cell)	MIC ([6]; first value of cell)	MIC ([6]; second value of cell)	MIC ([7]; first value of cell)	MIC ([7]; second value of cell)	MIC ([8]; first value of cell)	MIC ([8]; second value of cell)	MIC ([9]; first value of cell)	MIC ([9]; second value of cell)	MIC ([10]; first value of cell)	MIC ([10]; second value of cell)	remaining activity at 100 µM [11]	MIC range against Gram-negative strains [2]	MIC [12]	also measured
Cc1[nH]c(C(=O)Nc2nc3c(C)c(F)c(C(=O)O)cc3s2)c(Cl)c1Cl [Compound B]	2000 ± 900 nM	> 64 µg/mL	40 nM	> 64 µg/mL	> 159 µM	> 64 µg/mL	> 159 µM	> 64 µg/mL	> 159 µM	> 64 µg/mL	> 159 µM	0.25 µg/mL	0.6 µM	0.5 µg/mL	1.2 µM	> 64 µg/mL	> 159 µM				
Cc1[nH]c(C(=O)Nc2nc3cc(NCc4ccccc4)c(C(=O)O)cc3s2)c(Cl)c1Cl [Compound D]	293 ± 155 nM		< 10 nM	> 64 µg/mL	> 135 µM	8 µg/mL	17 µM	8 µg/mL	17 µM	4 µg/mL	8.4 µM	< 0.03 µg/mL	< 0.07 µM	< 0.03 µg/mL	< 0.07 µM	16 µg/mL	34 µM	100%	4 to 16 µg/mL	< 0.03 µg/mL	MIC ([13]; first value of cell): < 0.13 µg/mL; MIC ([13]; second value of cell): < 0.26 µM; MIC ([14]; first value of cell): < 0.03 µg/mL; MIC ([14]; second value of cell): < 0.07 µM
Cc1[nH]c(C(=O)Nc2nc3cc(O)c(C(=O)O)cc3s2)c(Cl)c1Cl [Compound A]																					MIC S. aureus ATCC29213 ([15]; first value of cell): 16 µg/mL; MIC S. aureus ATCC29213 ([15]; second value of cell): 41 µM; IC50 [16]: 95 nM; MIC A. baumannii ATCC17978 ([17]; first value of cell): > 64 µg/mL; MIC A. baumannii ATCC17978 ([17]; second value of cell): > 166 µM; IC50 [18]: < 10 nM; MIC against Gram-negative bacterial strains (inactive) [19]: > 64 µg/mL; MIC E. coli ATCC25922 ([20]; first value of cell): > 64 µg/mL; MIC E. coli ATCC25922 ([20]; second value of cell): > 166 µM; MIC S. aureus (MRSA) ATCC43300 ([21]; first value of cell): 4 µg/mL; MIC S. aureus (MRSA) ATCC43300 ([21]; second value of cell): 10 µM; MIC K. pneumoniae ATCC10031 ([22]; first value of cell): 8 µg/mL; MIC K. pneumoniae ATCC10031 ([22]; second value of cell): 21 µM; MIC P. aeruginosa ATCC27853 ([23]; first value of cell): > 64 µg/mL; MIC P. aeruginosa ATCC27853 ([23]; second value of cell): > 166 µM
COCCCNc1cc2nc(NC(=O)c3[nH]c(C)c(Cl)c3Cl)sc2cc1C(=O)O [Compound E]	210 nM		< 10 nM	> 64 µg/mL	> 140 µM	4 µg/mL	9 µM	16 µg/mL	35 µM	4 µg/mL	9 µM	< 0.03 µg/mL	< 0.07 µM	< 0.03 µg/mL	< 0.07 µM	8 µg/mL	18 µM	55%	4 to 16 µg/mL	< 0.03 µg/mL	MIC ([13]; first value of cell): < 0.06 µg/mL; MIC ([13]; second value of cell): < 0.14 µM; MIC ([14]; first value of cell): < 0.03 µg/mL; MIC ([14]; second value of cell): < 0.07 µM
CC(=O)N(Cc1ccccc1)c1cc2nc(NC(=O)c3[nH]c(C)c(Cl)c3Cl)sc2cc1C(=O)O [Compound C]		> 64 µg/mL	71 nM	> 64 µg/mL	> 124 µM	> 64 µg/mL	> 124 µM	> 64 µg/mL	> 124 µM	64 µg/mL	124 µM	8 µg/mL	16 µM	8 µg/mL	16 µM	> 64 µg/mL	> 124 µM				IC50 ([1]; E. coli, read-out: IC50 Topo IV): 4000 nM
